Laboratory results published in US20250170248A1, “SMARCA DEGRADERS AND USES THEREOF” (Kymera Therapeutics, Inc., priority 2021, published 2025).

Tests used:
Assay type in all cases: cell-based
SMARCA2 [1] = target: T1, SMARCA2 (Homo sapiens, UniProt P51531); experiment: SMARCA2 Western blot degradation in MV4-11 cells; parameters: SMARCA2/SMARCA4 protein degradation selectivity in MV4-11 cells; endogenous in cells; host or cells: MV4-11; conditions: for Dmax: MV4-11, MV4-11 cells, read-out: SMARCA2 MSD MV411 degradation 24 h: average Dmax %; for Dmax / DC50 / SMARCA2 MSD MV411 degradation 24 h: average Dmax %: 24 h; for DC50 / Selectivity in MV411 / SMARCA2 MSD MV411 degradation 24 h: average Dmax %: MV4-11 cells; for DC50: read-out: SMARCA2 MSD MV411 degradation 24 h: Mean external-Abs DC50; for Selectivity in MV411: SMARCA2/4 selectivity
T1 sequence (P51531 whole entry): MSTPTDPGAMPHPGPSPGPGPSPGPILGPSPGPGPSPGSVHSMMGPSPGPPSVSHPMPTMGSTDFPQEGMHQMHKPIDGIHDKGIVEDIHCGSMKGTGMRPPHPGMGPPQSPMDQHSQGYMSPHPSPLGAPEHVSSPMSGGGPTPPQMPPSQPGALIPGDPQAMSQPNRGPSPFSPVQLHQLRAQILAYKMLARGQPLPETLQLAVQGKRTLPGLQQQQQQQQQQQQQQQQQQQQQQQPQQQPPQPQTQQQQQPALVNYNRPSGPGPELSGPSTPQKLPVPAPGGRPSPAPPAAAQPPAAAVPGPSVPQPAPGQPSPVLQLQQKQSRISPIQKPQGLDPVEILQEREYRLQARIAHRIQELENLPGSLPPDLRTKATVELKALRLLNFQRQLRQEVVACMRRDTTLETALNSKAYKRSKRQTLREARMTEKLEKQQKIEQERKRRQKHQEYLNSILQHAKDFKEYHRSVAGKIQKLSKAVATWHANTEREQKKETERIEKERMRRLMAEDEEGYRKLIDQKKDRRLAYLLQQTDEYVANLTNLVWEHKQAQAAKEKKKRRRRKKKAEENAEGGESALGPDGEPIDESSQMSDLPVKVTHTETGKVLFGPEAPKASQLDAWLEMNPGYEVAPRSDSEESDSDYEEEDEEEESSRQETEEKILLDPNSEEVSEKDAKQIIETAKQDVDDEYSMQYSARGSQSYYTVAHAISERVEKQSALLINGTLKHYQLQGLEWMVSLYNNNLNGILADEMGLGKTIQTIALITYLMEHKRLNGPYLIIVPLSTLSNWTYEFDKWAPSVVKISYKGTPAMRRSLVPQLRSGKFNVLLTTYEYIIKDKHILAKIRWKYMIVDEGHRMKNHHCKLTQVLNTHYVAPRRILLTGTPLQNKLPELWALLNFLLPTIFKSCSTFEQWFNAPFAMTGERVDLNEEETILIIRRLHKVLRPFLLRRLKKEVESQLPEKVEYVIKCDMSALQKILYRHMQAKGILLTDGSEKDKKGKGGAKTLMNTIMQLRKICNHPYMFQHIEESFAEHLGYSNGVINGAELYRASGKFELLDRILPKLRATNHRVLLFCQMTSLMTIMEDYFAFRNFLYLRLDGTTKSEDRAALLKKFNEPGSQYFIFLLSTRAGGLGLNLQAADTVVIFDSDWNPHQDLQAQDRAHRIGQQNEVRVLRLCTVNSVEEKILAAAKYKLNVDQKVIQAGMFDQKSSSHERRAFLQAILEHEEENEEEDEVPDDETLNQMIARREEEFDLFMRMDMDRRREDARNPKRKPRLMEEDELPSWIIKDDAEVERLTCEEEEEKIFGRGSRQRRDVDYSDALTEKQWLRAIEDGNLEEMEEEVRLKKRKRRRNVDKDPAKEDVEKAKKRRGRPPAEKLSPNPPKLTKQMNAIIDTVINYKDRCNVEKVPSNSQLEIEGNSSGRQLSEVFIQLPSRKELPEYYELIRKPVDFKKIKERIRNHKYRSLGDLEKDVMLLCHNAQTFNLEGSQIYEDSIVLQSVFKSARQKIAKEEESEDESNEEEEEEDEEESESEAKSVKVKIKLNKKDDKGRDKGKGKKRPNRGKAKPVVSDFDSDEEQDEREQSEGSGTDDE

SMARCA2 [2] = target: T1, SMARCA2; experiment: MSD SMARCA2 degradation in A549 cell line; conditions: for Dmax: A549, A549 cells; for Dmax / DC50: 24 h; for DC50 / SMARCA2 MSD A549 degradation 24 h: Average Dmax %: A549 cells; for DC50: read-out: SMARCA2 MSD A549 degradation 24 h: Average external-Abs DC50
Outline: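 SMARCA2 protein remaining after 24 h exposure of A549 cells (top concentration 1000 nM, 3-fold dilutions) was measured by MSD electrochemiluminescence immunoassay of cell lysates. Results are given as binned DC50 and maximal degradation (Dmax) codes.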

SMARCA4 = target: T2, SMARCA4 (Homo sapiens, UniProt P51532); experiment: SMARCA4 Western blot degradation in MV4-11 cells; conditions: for Dmax: MV4-11, MV4-11 cells, read-out: SMARCA4 MSD MV411 degradation 24 h: average Dmax %; for Dmax / DC50: 24 h; for DC50 / SMARCA4 MSD MV411 degradation 24 h: average Dmax %: MV4-11 cells; for DC50: read-out: SMARCA4 MSD MV411 degradation 24 h: Mean external-Abs DC50
T2 construct: SMARCA2/SMARCA4 protein degradation selectivity in MV4-11 cells; endogenous in cells; host or cells: MV4-11
T2 sequence (P51532 whole entry): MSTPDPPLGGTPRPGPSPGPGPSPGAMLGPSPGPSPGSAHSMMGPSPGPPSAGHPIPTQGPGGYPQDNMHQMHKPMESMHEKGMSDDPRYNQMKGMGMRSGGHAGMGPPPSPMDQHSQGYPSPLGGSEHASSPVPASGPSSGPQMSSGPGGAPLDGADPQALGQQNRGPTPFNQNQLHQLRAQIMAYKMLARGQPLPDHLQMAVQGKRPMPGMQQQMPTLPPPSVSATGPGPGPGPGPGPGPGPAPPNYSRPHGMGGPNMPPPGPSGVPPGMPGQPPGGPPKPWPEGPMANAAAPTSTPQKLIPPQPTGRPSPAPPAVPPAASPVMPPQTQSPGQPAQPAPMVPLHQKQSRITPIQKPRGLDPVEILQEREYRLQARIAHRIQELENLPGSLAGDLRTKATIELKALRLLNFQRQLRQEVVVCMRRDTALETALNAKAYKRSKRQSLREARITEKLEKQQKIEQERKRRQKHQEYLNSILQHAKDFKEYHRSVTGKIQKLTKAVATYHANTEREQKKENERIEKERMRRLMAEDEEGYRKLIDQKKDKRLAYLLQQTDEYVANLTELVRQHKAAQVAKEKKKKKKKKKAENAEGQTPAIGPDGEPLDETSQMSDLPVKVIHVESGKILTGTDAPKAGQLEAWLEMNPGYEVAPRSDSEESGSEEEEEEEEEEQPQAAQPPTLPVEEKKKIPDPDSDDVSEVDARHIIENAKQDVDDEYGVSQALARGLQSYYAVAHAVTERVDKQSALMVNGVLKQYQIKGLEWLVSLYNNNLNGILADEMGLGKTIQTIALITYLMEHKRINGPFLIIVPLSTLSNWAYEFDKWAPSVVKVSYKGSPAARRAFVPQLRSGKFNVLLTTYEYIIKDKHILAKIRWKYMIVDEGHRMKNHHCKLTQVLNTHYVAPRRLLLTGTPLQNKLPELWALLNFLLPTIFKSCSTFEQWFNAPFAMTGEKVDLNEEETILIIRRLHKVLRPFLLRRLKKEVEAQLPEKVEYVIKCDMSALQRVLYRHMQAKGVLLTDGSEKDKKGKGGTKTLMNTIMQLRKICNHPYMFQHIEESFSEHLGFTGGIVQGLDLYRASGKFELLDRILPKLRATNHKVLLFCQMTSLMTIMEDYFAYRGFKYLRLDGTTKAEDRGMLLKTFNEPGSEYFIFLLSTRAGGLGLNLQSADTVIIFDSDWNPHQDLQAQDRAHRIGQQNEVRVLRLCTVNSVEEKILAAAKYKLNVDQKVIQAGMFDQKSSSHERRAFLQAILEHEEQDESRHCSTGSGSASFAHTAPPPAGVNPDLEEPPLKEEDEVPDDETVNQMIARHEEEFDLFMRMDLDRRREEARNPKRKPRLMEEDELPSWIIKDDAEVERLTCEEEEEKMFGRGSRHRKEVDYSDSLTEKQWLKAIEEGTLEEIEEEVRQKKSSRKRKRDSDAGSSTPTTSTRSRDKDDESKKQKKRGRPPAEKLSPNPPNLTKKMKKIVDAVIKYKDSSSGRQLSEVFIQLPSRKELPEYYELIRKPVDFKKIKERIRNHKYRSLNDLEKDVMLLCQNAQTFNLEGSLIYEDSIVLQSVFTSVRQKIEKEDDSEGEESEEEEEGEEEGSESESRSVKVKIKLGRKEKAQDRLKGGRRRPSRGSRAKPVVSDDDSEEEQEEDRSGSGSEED
Outline: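 Protein levels quantified by LI-COR Western blot (beta-actin loading control) in RIPA lysates of MV4-11 cells after 24 h compound exposure. Degradation reported as DC50, Dmax % at 24 h and SMARCA2 vs SMARCA4 selectivity, each binned into letter codes.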

Row | Dmax (SMARCA2 [1]) | DC50 (SMARCA2 [1]) | Selectivity in MV411 (SMARCA2 [1]) | Dmax (SMARCA2 [2]) | DC50 (SMARCA2 [2]) | Dmax (SMARCA4) | DC50 (SMARCA4) | SMARCA2 MSD MV411 degradation 24 h: average Dmax % (SMARCA2 [1]) | SMARCA2 MSD A549 degradation 24 h: Average Dmax % (SMARCA2 [2]) | SMARCA4 MSD MV411 degradation 24 h: average Dmax % (SMARCA4) | SMILES
1 | < 50% | > 100 nM | D (D (<10 fold)) | 50 to 70% | > 100 nM | < 50% | > 100 nM |  |  |  | C#Cc1cnc(CNC(=O)[C@@H]2C[C@@H](O)CN2C(=O)[C@@H](NC(=O)[C@H]2CCC3(CC2)C[C@H](N2CCC(c4cnc(N5CCN6c7cc(-c8ccccc8O)nnc7NC[C@H]6C5)nc4)CC2)C3)C(C)(C)C)c(OC)c1 (single isomer, unassigned) [I-286]
2 | 70 to 90% | 1 to 10 nM | A (A (>500 fold)) | > 90% | < 10 nM | 50 to 70% | > 100 nM |  |  |  | C#Cc1ccc(CNC(=O)[C@@H]2C[C@@H](O)CN2C(=O)[C@@H](NC(=O)[C@H]2CCC3(CC2)C[C@H](N2CCN(c4cnc(N5CCN6c7cc(-c8ccccc8O)nnc7NC[C@H]6C5)nc4)CC2)C3)C(C)(C)CCO)cc1 (single isomer, unassigned) [I-287]
3 |  | > 100 nM | D (D (<10 fold)) |  | 10 to 50 nM |  | > 100 nM | D (D (<50% degradation)) | B (B (>70-90% degradation)) | D (D (<50% degradation)) | C#Cc1cnc(CNC(=O)[C@@H]2C[C@@H](O)CN2C(=O)[C@@H](NC(=O)[C@H]2CCC3(CC2)C[C@H](N2CCC(c4cnc(N5CCN6c7cc(-c8ccccc8O)nnc7NC[C@H]6C5)nc4)CC2)C3)C(C)(C)C)c(OC)c1 (single isomer, unassigned) [I-298]
4 |  | 1 to 10 nM | C (C (10-100 fold)) |  | < 10 nM |  | > 100 nM | B (B (>70-90% degradation)) | A (A (>90% degradation)) | C (C (50-70% degradation)) | C#Cc1ccc(CNC(=O)[C@@H]2C[C@@H](O)CN2C(=O)[C@@H](NC(=O)[C@H]2CCC3(CC2)C[C@H](N2CCN(c4cnc(N5CCN6c7cc(-c8ccccc8O)nnc7NC[C@H]6C5)nc4)CC2)C3)C(C)(C)CCO)cc1 (single isomer, unassigned) [I-299]
5 |  | 10 to 100 nM | C (C (10-100 fold)) |  | > 100 nM |  | > 100 nM | B (B (>70-90% degradation)) | A (A (>90% degradation)) | D (D (<50% degradation)) | C#Cc1ccc(CNC(=O)[C@@H]2C[C@@H](O)CN2C(=O)[C@@H](NC(=O)[C@H]2CC3(CC[C@H](N4CCN(c5cnc(N6CCc7[nH]c8nnc(-c9ccccc9O)cc8c7[C@H]6C)nc5)CC4)CC3)C2)C(C)(C)C)cc1 (single isomer, unassigned) [I-300]
6 | > 90% | 1 to 10 nM | C (C (10-100 fold)) | > 90% | 10 to 50 nM | > 90% | 10 to 100 nM |  |  |  | C#Cc1ccc(CNC(=O)[C@@H]2C[C@@H](O)CN2C(=O)[C@@H](NC(=O)[C@H]2CC3(C2)C[C@H](c2cnc(N4CCC(N5CCN6c7cc(-c8ccccc8O)nnc7NC[C@H]6C5)CC4)nc2)C3)C(C)(C)C)cc1 (single isomer, unassigned) [I-301]
7 | 70 to 90% | 1 to 10 nM | B (B (>100-500 fold)) | > 90% | 50 to 100 nM | < 50% | > 100 nM |  |  |  | C#Cc1ccc([C@H](CO)NC(=O)[C@@H]2C[C@@H](O)CN2C(=O)[C@@H](NC(=O)N2CC3(CC(N4CCC(c5cnc(N6CCc7[nH]c8nnc(-c9ccccc9O)cc8c7[C@H]6C)nc5)CC4)C3)C2)C(C)(C)C)nc1 (single isomer, unassigned) [I-304]
8 | < 50% | > 100 nM | D (D (<10 fold)) | < 50% | > 100 nM | < 50% | > 100 nM |  |  |  | C#Cc1ccc(CNC(=O)[C@@H]2C[C@@H](O)CN2C(=O)[C@H](NC(=O)[C@H]2CCC3(CC2)C[C@H](N2CCN(c4cnc(N5CCN6c7cc(-c8ccccc8O)nnc7NC[C@H]6C5)nc4)CC2)C3)C(C)(C)CCO)c(Cl)c1 (single isomer, unassigned) [I-306]
9 | 70 to 90% | 1 to 10 nM | C (C (10-100 fold)) | > 90% | 10 to 50 nM | 70 to 90% | > 100 nM |  |  |  | C#Cc1ccc(CNC(=O)[C@@H]2C[C@@H](O)CN2C(=O)[C@@H](NC(=O)[C@H]2CCC3(CC2)C[C@H](N2CCN(c4cnc(N5CCN6c7cc(-c8ccccc8O)nnc7NC[C@H]6C5)nc4)CC2)C3)C(C)(C)CCO)c(Cl)c1 (single isomer, unassigned) [I-311]
10 |  | 10 to 100 nM | B (B (>100-500 fold)) |  | 10 to 50 nM |  | > 100 nM | B (B (>70-90% degradation)) | A (A (>90% degradation)) | D (D (<50% degradation)) | C#Cc1ccc(CNC(=O)[C@@H]2C[C@@H](O)CN2C(=O)[C@@H](NC(=O)[C@H]2CCC3(CC2)C[C@H](N2CCN(c4cnc(N5CCN6c7cc(-c8ccccc8O)nnc7NC[C@H]6C5)nc4)CC2)C3)C(C)(C)CCO)c(Cl)c1 (single isomer, unassigned) [I-312]
11 | < 50% | > 100 nM | C (C (10-100 fold)) | < 50% | > 100 nM | < 50% | > 100 nM |  |  |  | C#Cc1ccc(CNC(=O)[C@@H]2C[C@@H](O)CN2C(=O)[C@H](NC(=O)N2CC3(CC(N4CCC(c5cnc(N6CCc7[nH]c8nnc(-c9ccccc9O)cc8c7[C@H]6C)nc5)CC4)C3)C2)C(C)(C)CCO)c(Cl)c1 (single isomer, unassigned) [I-316]
12 | 70 to 90% | 1 to 10 nM | C (C (10-100 fold)) | > 90% | 10 to 50 nM | 70 to 90% | > 100 nM |  |  |  | C#Cc1ccc(CNC(=O)[C@@H]2C[C@@H](O)CN2C(=O)[C@@H](NC(=O)N2CC3(CC(N4CCC(c5cnc(N6CCc7[nH]c8nnc(-c9ccccc9O)cc8c7[C@H]6C)nc5)CC4)C3)C2)C(C)(C)CCO)c(Cl)c1 (single isomer, unassigned) [I-317]
13 | < 50% | > 100 nM | D (D (<10 fold)) | < 50% | > 100 nM | < 50% | > 100 nM |  |  |  | C#Cc1cc(Cl)c(CNC(=O)[C@@H]2C[C@@H](O)CN2C(=O)[C@@H](NC(=O)[C@H]2CC3(C2)C[C@H](N2CCC(N4CCC(N5CCN6c7cc(-c8ccccc8O)nnc7NC[C@H]6C5)CC4)CC2)C3)C(C)(C)C)c(OC)c1 (single isomer, unassigned) [I-328]
14 | 50 to 70% | > 100 nM | C (C (10-100 fold)) | 50 to 70% | > 100 nM | < 50% | > 100 nM |  |  |  | C#Cc1cnc(CNC(=O)[C@@H]2C[C@@H](O)CN2C(=O)[C@@H](NC(=O)[C@H]2CC3(C2)C[C@H](N2CCC(N4CCC(N5CCN6c7cc(-c8ccccc8O)nnc7NC[C@H]6C5)CC4)CC2)C3)C(C)(C)C)c(OC)c1 (single isomer, unassigned) [I-330]
15 | > 90% | < 1 nM | C (C (10-100 fold)) | > 90% | 10 to 50 nM | 70 to 90% | 10 to 100 nM |  |  |  | C#Cc1ccc([C@H](C)NC(=O)[C@@H]2C[C@@H](O)CN2C(=O)[C@H](c2cc(OCCN3CCC(N4CCC(N5CCC(CN6CCN7c8cc(-c9ccccc9O)nnc8NC[C@H]7C6)CC5)CC4)CC3)no2)C(C)C)cc1 (single isomer, unassigned) [I-333]
16 | < 50% | > 100 nM | D (D (<10 fold)) | 50 to 70% | > 100 nM | < 50% | > 100 nM |  |  |  | C#Cc1ccc([C@H](C)NC(=O)[C@@H]2C[C@@H](O)CN2C(=O)[C@@H](c2cc(OCCN3CCC(N4CCC(N5CCC(CN6CCN7c8cc(-c9ccccc9O)nnc8NC[C@H]7C6)CC5)CC4)CC3)no2)C(C)C)cc1 (single isomer, unassigned) [I-334]
17 | 70 to 90% | 10 to 100 nM | B (B (>100-500 fold)) | > 90% | > 100 nM | < 50% | > 100 nM |  |  |  | C#Cc1ccc(CNC(=O)[C@@H]2C[C@@H](O)CN2C(=O)[C@H](NC(=O)N2CC3(CC(N4CCC(c5cnc(N6CCc7[nH]c8nnc(-c9ccccc9O)cc8c7[C@H]6C)nc5)CC4)C3)C2)C(C)(C)CCN2CCOCC2)cc1 (single isomer, unassigned) [I-337]
